Laboratory results taken from the NIST ThermoML archive (doi:10.1016/j.jct.2016.02.010).

Legend:
[1] = Crystal; for Normal melting temperature: DTA; for vapor or sublimation pressure: Calculated from knudsen effusion weight loss
[2] = Molar enthalpy of transition or fusion; details: Crystal; DSC
[3] = molar heat capacity at constant pressure; details: 101.33 kPa, Small sample (50 mg) DSC

CC(O)c1ccccc1 (configuration not stated) [1-phenylethanol]
Details | Molar enthalpy of transition or fusion [kcal/mol] | Normal melting temperature [°C]
[1] | – | 18.6
[2] | 3.82 | –

[3], Liquid
Details | molar heat capacity at constant pressure [J/K/mol]
297.15 K | 262.4
298.15 K | 263.1
299.15 K | 263.9
300.15 K | 264.6
301.15 K | 265.1
302.15 K | 265.8
303.15 K | 267.1
304.15 K | 267.9
305.15 K | 268.5
306.15 K | 269.4
307.15 K | 269.8
308.15 K | 271
309.15 K | 271.7
310.15 K | 272.4
311.15 K | 273
312.15 K | 273.7
313.15 K | 274.7
314.15 K | 275.1
315.15 K | 275.7
316.15 K | 276.4
317.15 K | 277.3
318.15 K | 278.2
319.15 K | 279.1
320.15 K | 279.6
321.15 K | 280.3
322.15 K | 281
323.15 K | 281.5
324.15 K | 282.2
325.15 K | 283
326.15 K | 283.9
327.15 K | 284.4
328.15 K | 284.8
329.15 K | 285.4
330.15 K | 286
331.15 K | 286.7
332.15 K | 287.3
333.15 K | 288.1
334.15 K | 288.9
335.15 K | 289.6
336.15 K | 290.2
337.15 K | 290.6
338.15 K | 291.2
339.15 K | 292
340.15 K | 292.5
341.15 K | 293
342.15 K | 293.6
343.15 K | 294.2
344.15 K | 295.2
345.15 K | 295.7
346.15 K | 296.3
347.15 K | 296.9
348.15 K | 297.5
349.15 K | 298.1
350.15 K | 298.3
351.15 K | 298.8
352.15 K | 299.2
353.15 K | 300.7
354.15 K | 300.8
355.15 K | 301.7
356.15 K | 302.8
357.15 K | 303.4
358.15 K | 303.8
359.15 K | 303.9
360.15 K | 304.5
361.15 K | 305.3
362.15 K | 305.7
363.15 K | 306.1
364.15 K | 307
365.15 K | 307.7
366.15 K | 308.4
367.15 K | 308.6
368.15 K | 308.9
369.15 K | 309.5
370.15 K | 310.3
371.15 K | 311.1
372.15 K | 311.6
373.15 K | 311.8

OC(c1ccccc1)c1ccccc1 [diphenylmethanol]
Details | mass density [kg/m3]
[1], 298 K, 101.33 kPa, Pycnometric method | 1210

[1]
Details | vapor or sublimation pressure [kPa]
301.97 K | 0.000128
304.52 K | 0.00018
305.16 K | 0.000198
308.1 K | 0.00028
311.41 K | 0.000446
314.06 K | 0.00061
317.02 K | 0.00091

Details | Molar enthalpy of transition or fusion [kcal/mol] | Normal melting temperature [°C]
[1] | – | 66.2
[2] | 5.66 | –

[3], Crystal
Details | molar heat capacity at constant pressure [J/K/mol]
259.15 K | 202.8
260.15 K | 203.3
261.15 K | 203.9
262.15 K | 204.6
263.15 K | 205.2
264.15 K | 206.1
265.15 K | 206.8
266.15 K | 207.6
267.15 K | 208.5
268.15 K | 209.5
269.15 K | 210.3
270.15 K | 211.1
271.15 K | 211.7
272.15 K | 212.5
273.15 K | 213.8
274.15 K | 214.1
275.15 K | 215.2
276.15 K | 215.9
277.15 K | 216.9
278.15 K | 216.8
279.15 K | 217.6
280.15 K | 218.5
281.15 K | 219.4
282.15 K | 220.2
283.15 K | 221
284.15 K | 221.8
285.15 K | 222.8
286.15 K | 223.3
287.15 K | 224.3
288.15 K | 225
289.15 K | 225.8
290.15 K | 226.5
291.15 K | 227.4
292.15 K | 228.2
293.15 K | 229.1
294.15 K | 229.9
295.15 K | 230.7
296.15 K | 231.9
297.15 K | 232
298.15 K | 233
299.15 K | 233.7
300.15 K | 234.5
301.15 K | 235.4
302.15 K | 236.2
303.15 K | 237
304.15 K | 237.8
305.15 K | 238.7
306.15 K | 239.6
307.15 K | 240.7
308.15 K | 241.8
309.15 K | 242.5
310.15 K | 243.3
311.15 K | 244.2
312.15 K | 245.2
313.15 K | 246
314.15 K | 247
315.15 K | 247.8
316.15 K | 248.8
317.15 K | 249.8
318.15 K | 250.7
319.15 K | 251.7
320.15 K | 252.5
321.15 K | 253.5
322.15 K | 254.4
323.15 K | 255.3
324.15 K | 256.4
325.15 K | 257.4
326.15 K | 258.5
327.15 K | 259.5
328.15 K | 260.7
329.15 K | 261.8
330.15 K | 263.1
331.15 K | 265.1
332.15 K | 267

OC(c1ccccc1)(c1ccccc1)c1ccccc1 [triphenylmethanol]
[1]
Details | vapor or sublimation pressure [kPa]
342.25 K | 3.35e-06
344.44 K | 4.39e-06
347.56 K | 6.8e-06
351.64 K | 1.11e-05
353.37 K | 1.42e-05
356.81 K | 1.93e-05
358.08 K | 2.17e-05

Details | Molar enthalpy of transition or fusion [kcal/mol] | Normal melting temperature [°C]
[1] | – | 162.1
[2] | 6.52 | –

[3], Crystal
Details | molar heat capacity at constant pressure [J/K/mol]
259.15 K | 283
260.15 K | 283.6
261.15 K | 284.9
262.15 K | 285.6
263.15 K | 286.4
264.15 K | 288.3
265.15 K | 289.5
266.15 K | 290.4
267.15 K | 291.2
268.15 K | 290.8
269.15 K | 292.3
270.15 K | 293.4
271.15 K | 294.3
272.15 K | 295.3
273.15 K | 296.5
274.15 K | 297.4
275.15 K | 297.3
276.15 K | 298.6
277.15 K | 299.8
278.15 K | 301.2
279.15 K | 302.1
280.15 K | 302.8
281.15 K | 303.4
282.15 K | 304.7
283.15 K | 306
284.15 K | 305.9
285.15 K | 307
286.15 K | 307.4
287.15 K | 308.9
288.15 K | 309.3
289.15 K | 310.1
290.15 K | 310.6
291.15 K | 311.8
292.15 K | 312.5
293.15 K | 312.9
294.15 K | 313.5
295.15 K | 314.7
296.15 K | 315.1
297.15 K | 316.1
298.15 K | 316.4
299.15 K | 316.9
300.15 K | 319.7
301.15 K | 320.5
302.15 K | 321.2
303.15 K | 322.1
304.15 K | 323
305.15 K | 324.7
306.15 K | 325.1
307.15 K | 326.1
308.15 K | 327.2
309.15 K | 328.5
310.15 K | 329.3
311.15 K | 330
312.15 K | 331.2
313.15 K | 331.9
314.15 K | 332.7
315.15 K | 333.4
316.15 K | 334.4
317.15 K | 335.9
318.15 K | 336.8
319.15 K | 337.6
320.15 K | 338.3
321.15 K | 339.8
322.15 K | 340.7
323.15 K | 343.5
324.15 K | 344.4
325.15 K | 345.5
326.15 K | 346.3
327.15 K | 347.4
328.15 K | 348.5
329.15 K | 349.7
330.15 K | 350.6
331.15 K | 351.4
332.15 K | 352.2
333.15 K | 353.2
334.15 K | 354.1
335.15 K | 355
336.15 K | 356.1
337.15 K | 357.1
338.15 K | 358.3
339.15 K | 359.3
340.15 K | 359.9
341.15 K | 360.8
342.15 K | 362
343.15 K | 363.1
344.15 K | 363.9
345.15 K | 364.6
346.15 K | 365.7
347.15 K | 366.7
348.15 K | 367.5
349.15 K | 368.3
350.15 K | 369.4
351.15 K | 370.6
352.15 K | 371.3
353.15 K | 374.6
354.15 K | 375.6
355.15 K | 376.7
356.15 K | 378.1
357.15 K | 379
358.15 K | 379.6
359.15 K | 380.8
360.15 K | 381.6
361.15 K | 382.3
362.15 K | 383
363.15 K | 383.8
364.15 K | 384.8
365.15 K | 386.1
366.15 K | 387.2
367.15 K | 387.8
368.15 K | 389.1
369.15 K | 391
370.15 K | 393.2
371.15 K | 395.8
372.15 K | 396.3
373.15 K | 397.3
